ChEMBL document CHEMBL3885861, “Open TG-GATES”

Species: Rattus norvegicus
Assay: Open TG-GATES - Regimen: Single
Format: toxicity, organism-based, Sprague-Dawley
Parameters: regimen Single, gender Male, age 6 weeks
Settings: in vivo, po, 6 mg/kg, route gavage, dose level High; for APTT / Bas / Eos / Fbg / Hb / Ht / Lym / MCH / MCHC / MCV / Mono / Neu / PT / Plat / RBC / Ret / WBC: tissue Blood; for KIDNEY_L / KIDNEY_R / KIDNEY_TOTAL: tissue Kidney; for LIVER: tissue Liver; for A/G / ALP / ALT / AST / BUN / CRE / Ca / Cl / DBIL / GLC / IP / K / LDH / Na / PL / RALB / TBIL / TC / TG / TP / gamma-GTP: tissue Plasma

O=NN(CCCl)C(=O)NC1CCCCC1 [LOMUSTINE]
TERMINAL_BW (3 h): 203.9 g
APTT (3 h): 16.2 s
Bas (3 h): 0%
Eos (3 h): 0.4%
Fbg (3 h): 212.6 mg/dL
Hb (3 h): 13.3 g/dL
Ht (3 h): 39.7%
Lym (3 h): 78.2%
MCH (3 h): 21.7 pg
MCHC (3 h): 33.4%
MCV (3 h): 64.8 fL
Mono (3 h): 9.4%
Neu (3 h): 12.2%
PT (3 h): 11.4 s
Plat (3 h): 106.7 x10_4/uL
RBC (3 h): 612.4 x10_4/ul
Ret (3 h): 8.5%
WBC (3 h): 112.2 x10_2/uL
KIDNEY_L (3 h): 0.9 g
KIDNEY_R (3 h): 0.9 g
KIDNEY_TOTAL (3 h): 1.9 g
LIVER (3 h): 10 g
A/G (3 h): 1.8
ALP (3 h): 970.2 IU/L
ALT (3 h): 36.6 IU/L
AST (3 h): 67.6 IU/L
BUN (3 h): 13.8 mg/dL
CRE (3 h): 0.5 mg/dL
Ca (3 h): 11.3 mg/dL
Cl (3 h): 105.4 meq/L
DBIL (3 h): 0.028 mg/dL
GLC (3 h): 189.6 mg/dL
IP (3 h): 10.3 mg/dL
K (3 h): 4.7 meq/L
LDH (3 h): 161 IU/L
Na (3 h): 140.4 meq/L
PL (3 h): 134 mg/dL
RALB (3 h): 3.6 g/dL
TBIL (3 h): 0.3 mg/dL
TC (3 h): 73.8 mg/dL
TG (3 h): 56.2 mg/dL
TP (3 h): 5.6 g/dL
gamma-GTP (3 h): 1.6 IU/L
TERMINAL_BW (6 h): 201.4 g
APTT (6 h): 16.7 s
Bas (6 h): 0%
Eos (6 h): 0.4%
Fbg (6 h): 217.8 mg/dL
Hb (6 h): 13.1 g/dL
Ht (6 h): 39.4%
Lym (6 h): 78.6%
MCH (6 h): 22.2 pg
MCHC (6 h): 33.3%
MCV (6 h): 66.7 fL
Mono (6 h): 7.6%
Neu (6 h): 13.6%
PT (6 h): 12.1 s
Plat (6 h): 108.1 x10_4/uL
RBC (6 h): 591.6 x10_4/ul
Ret (6 h): 8.9%
WBC (6 h): 107.2 x10_2/uL
KIDNEY_L (6 h): 0.9 g
KIDNEY_R (6 h): 0.9 g
KIDNEY_TOTAL (6 h): 1.9 g
LIVER (6 h): 9.1 g
A/G (6 h): 1.9
ALP (6 h): 865 IU/L
ALT (6 h): 29.4 IU/L
AST (6 h): 66.2 IU/L
BUN (6 h): 10.4 mg/dL
CRE (6 h): 0.5 mg/dL
Ca (6 h): 11 mg/dL
Cl (6 h): 104.8 meq/L
DBIL (6 h): 0.008 mg/dL
GLC (6 h): 191.8 mg/dL
IP (6 h): 10.5 mg/dL
K (6 h): 4.7 meq/L
LDH (6 h): 152.6 IU/L
Na (6 h): 139.4 meq/L
PL (6 h): 132.2 mg/dL
RALB (6 h): 3.6 g/dL
TBIL (6 h): 0.3 mg/dL
TC (6 h): 76 mg/dL
TG (6 h): 36.6 mg/dL
TP (6 h): 5.6 g/dL
gamma-GTP (6 h): 1.8 IU/L
TERMINAL_BW (9 h): 203.2 g
APTT (9 h): 16.7 s
Bas (9 h): 0%
Eos (9 h): 0.4%
Fbg (9 h): 224.6 mg/dL
Hb (9 h): 13.2 g/dL
Ht (9 h): 40.1%
Lym (9 h): 79.2%
MCH (9 h): 21.9 pg
MCHC (9 h): 32.9%
MCV (9 h): 66.5 fL
Mono (9 h): 5.8%
Neu (9 h): 15%
PT (9 h): 12.2 s
Plat (9 h): 104.4 x10_4/uL
RBC (9 h): 603 x10_4/ul
Ret (9 h): 9.2%
WBC (9 h): 97 x10_2/uL
KIDNEY_L (9 h): 1 g
KIDNEY_R (9 h): 1 g
KIDNEY_TOTAL (9 h): 1.9 g
LIVER (9 h): 8.7 g
A/G (9 h): 2.2
ALP (9 h): 889.4 IU/L
ALT (9 h): 31.4 IU/L
AST (9 h): 67 IU/L
BUN (9 h): 13 mg/dL
CRE (9 h): 0.5 mg/dL
Ca (9 h): 10.9 mg/dL
Cl (9 h): 106.4 meq/L
DBIL (9 h): 0.028 mg/dL
GLC (9 h): 190.8 mg/dL
IP (9 h): 11.3 mg/dL
K (9 h): 5 meq/L
LDH (9 h): 139.4 IU/L
Na (9 h): 140 meq/L
PL (9 h): 139.4 mg/dL
RALB (9 h): 3.9 g/dL
TBIL (9 h): 0.3 mg/dL
TC (9 h): 78.2 mg/dL
TG (9 h): 39.8 mg/dL
TP (9 h): 5.7 g/dL
gamma-GTP (9 h): 1.4 IU/L
TERMINAL_BW (24 h): 212 g
APTT (24 h): 15.7 s
Bas (24 h): 0%
Eos (24 h): 0.4%
Fbg (24 h): 214.2 mg/dL
Hb (24 h): 13.1 g/dL
Ht (24 h): 39.2%
Lym (24 h): 84.4%
MCH (24 h): 21.5 pg
MCHC (24 h): 33.2%
MCV (24 h): 64.7 fL
Mono (24 h): 7%
Neu (24 h): 7.8%
PT (24 h): 12.3 s
Plat (24 h): 107.2 x10_4/uL
RBC (24 h): 606.6 x10_4/ul
Ret (24 h): 8.4%
WBC (24 h): 121.5 x10_2/uL
KIDNEY_L (24 h): 1 g
KIDNEY_R (24 h): 1 g
KIDNEY_TOTAL (24 h): 2 g
LIVER (24 h): 10.5 g
A/G (24 h): 2
ALP (24 h): 873 IU/L
ALT (24 h): 35.2 IU/L
AST (24 h): 66.6 IU/L
BUN (24 h): 17.4 mg/dL
CRE (24 h): 0.5 mg/dL
Ca (24 h): 11.2 mg/dL
Cl (24 h): 105.2 meq/L
DBIL (24 h): 0.014 mg/dL
GLC (24 h): 180.4 mg/dL
IP (24 h): 8.1 mg/dL
K (24 h): 4.7 meq/L
LDH (24 h): 106.2 IU/L
Na (24 h): 137.8 meq/L
PL (24 h): 144.6 mg/dL
RALB (24 h): 3.9 g/dL
TBIL (24 h): 0.3 mg/dL
TC (24 h): 78.8 mg/dL
TG (24 h): 71.4 mg/dL
TP (24 h): 5.8 g/dL
gamma-GTP (24 h): 1.4 IU/L
